Assay results as given in US20040127567A1, “Novel methods for treating disorders in which docosahexaenoic acid (DHA) levels are affected” (Beth Israel Deaconess Medical Center, Inc., priority 1998, published 2004).

Assays:
Format in all cases: in vivo, mouse
wild-type mice [1] = experiment: DHA and AA levels in plasma, red blood cells and pancreas following DHA therapy; conditions: 40 mg DHA/day
Protocol: In this Example, levels of DHA and AA in various blood components following administration of 40 mg DHA/day to mice was determined. In particular, 40 mg DHA was given to wild type mice and levels of DHA (Table 11) and AA (Table 12) were measured in plasma, red blood cells (RBC), and the pancreas. […] Accordingly, either plasma or red blood cell levels of DHA and AA (and their ratios) can be used as a diagnostic or to determine the effectiveness of treatment in the pancreas and other affected organs.

wild-type mice [2] = experiment: Fatty acid levels (GC/MS) in pancreas and lung cells of wild-type mice fed n-3 fatty acids; conditions: for Change in phospholipid/membrane-bound AA (in words) / Change in phospholipid/membrane-bound DHA (in words): 40 mg/day for one week
Protocol: Mouse pancreatic acinar and lung cell suspensions were prepared from wild type (n=3) and CFTR−/− mice (n=3) by enzymatic and mechanical dissociation. In addition, brain, kidney, heart, spleen, and blood were sonicated in 0.3M sucrose buffer. Membrane lipids were extracted from cell and organ preparations with 20 volumes of chloroform-methanol 2:1 (v/v), transmethylated with 0.5 mL of 0.1 N methanolic-NaOH/BF3 reagent, and the resulting fatty acid methyl esters analyzed by gas chromatography/mass spectrometry (GC/MS). In a different set of experiments, lipids were fractionated by aminopropyl column chromatography into triglycerides, cholesterol esters, and phosphoglycerides and the fatty acid composition of each lipid class determined by a combination of enzymatic hydrolysis, transmethylation, and GC/MS.
Cystic fibrosis (UNC strain) and wild type mice (12-20 grams body weight) were fed with a complete liquid enteral formulation (Peptamen™, Nestle Clinical Nutrition, […], Springville, Utah). DHA content in the Neuromins formulation was 100 mg per 500 mg of formulation. […]
[…] The pellets (0.5 mL for pancreas cell homogenate and 0.6 mL for lung cell homogenate) were extracted with 3 mL of chloroform-methanol 2:1 (v/v). The resulting emulsion was vortexed, centrifuged at 800 g for 3 min., and the lower phase aspirated. The residual upper phase was partitioned again with 3 mL of chloroform-methanol 2:1 (v/v), the lower phase aspirated and both lower phases combined. Fractions were evaporated to dryness, processed for FAME and analyzed by GC-MS. Aliquots of 20 μL of 17:0 in chloroform-methanol 2:1 (v/v) were added to the samples before methylation.
CFTR−/− mice were prepared as described in Example 1. Both CFTR−/− mice and wild type mice were euthanized with carbon dioxide, and cell suspensions from pancreas and lung isolated. Pancreatic acini were prepared by collagenase and mechanical dissociation (Bruzzone et al., (1985) Biochem. J. 226:621-624). A total lung cell suspension was prepared by first flushing contaminating blood by repeated injection of lung with Krebs Henseleit buffer (KHB). Tissue was then extensively minced and incubated for 30 minutes at 37° C. in 10 ml of KHB containing 1,000 units of collagenase (Worthington Biochemical, PA) 2,000 units of DNase, and 0.5 units of thermolysin (Sigma Chemical Co., St. Louis, Mo.). The resulting cell suspension was sedimented once through KHB containing 5% BSA and subsequently washed once in KHB, pH 7.4 containing 32 mM bicarbonate, 10 mM Hepes, and 0.5% BSA. Brain, kidney, and heart were removed and sonicated in 0.5 mL and 0.3M sucrose. A similar approach was used for duodenum and ileum except that mucosal scrapings were used for sonication.
Since the pancreas and the lung are the two primary organs affected in cystic fibrosis, AA and DHA levels in cell preparations of these organs and in wild-type and CFTR−/− mice were quantitated by GC/MS analysis. Lipids were extracted from cell suspensions, tissue homogenates, and blood plasma with 6 volumes of chloroform-methanol (2:1, v/v). The resulting emulsions were centrifuged at 600 g for 3 min and the lower phase containing the lipids was collected. This procedure was repeated twice and the lower phases from the two extractions combined. Aliquots of 30 μL of heptadecanoic acid (17:0) (1 mg/ml) were added to the extracts and used as an internal standard.

wild-type mice [3] = experiment: Pancreas and ileum morphology in wild-type mice; conditions: 40 mg/day for one week
Protocol: The morphology of various organs were also studied. Sample preparation were carried out as follows: 1-2 cm of ileum adjacent to the cecum was fixed in formalin, embedded in paraffin, cut in cross-section, and stained with hematoxylin/eosin. For pancreatic analyses, 2-3 mm pieces of pancreas were fixed for 1.5 h in 2% glutaraldehyde in 0.2M cacodylate buffer. Tissue samples were then washed in 0.2M cacodylate buffer and subsequently postfixed for 1 h in 1% osmium tetroxide in 0.1 M cacodylate buffer. Tissue was embedded in epon and thick sections stained with 1% toluidine blue.
(§1) Morphometry: For measurement of ileal villus height or pancreatic luminal diameter, multiple images were randomly taken at 200× using a Nikon Microphot-SA microscope equipped with a Diagnostic Instruments, Inc., Spot Digitizing System. Images were examined in a blinded fashion by two independent observers. Quantitation was performed using NIH Imaging Software. The differences between the means in the groups tested were evaluated using the Student's t-test.

CFTR−/− mice = experiment: Ileal villus height in CFTR−/− mice; conditions: 40 mg/day
Protocol: CF and WT mice were fed as outlined in the method section above. Ileal height, i.e., the villi height in the ileum, was measured in CF knockout animals treated with either Peptamen™ alone, Peptamen™ +40 mg per day DHA, or Wild Type (WT) animals treated with Peptamen™ alone. Animals were sacrificed at 50 days of age, ileum fixed in paraformaldehyde, and the height measured on micrographs at 100×. […] The results are outlined in FIG. 2. […] Statistically significant differences (p<0.005) were found between wild-type and CF mice as well as between CF+40 mg DHA/day and CF. There was no statistically significant difference between WT and CF+40 mg DHA/day. […]
as §1, with “Images were examined in a blinded fashion by two independent observers.” left out
Thus, the morphologic and morphometric studies utilized with the pancreas were also performed on the ileum. Tissue from the wild type and CFTR−/− mice was prepared for light microscopy and sections analyzed at 200×. […] Morphometric analysis is shown in FIG. 8, the villous height was quantitated using NIH image software and expressed as mean […]±S.D. (n=6). […]

[4] = WT mouse fed Peptamen supplemented with DHA
[5] = wild-type mice, 40 mg DPA per day for 7 days
[6] = wild-type mice, listed as 18:3n-3

SMILES: CC/C=C\C/C=C\C/C=C\C/C=C\C/C=C\C/C=C\CCC(=O)O [DHA, docosahexaenoic acid]
- Phospholipid-bound AA level in RBC (wild-type mice [1]; day 2): 10.1 nmoles/100 million cells
- Phospholipid-bound AA level in pancreas (wild-type mice [1]; day 2): 262 nmoles per total extract
- Phospholipid-bound AA level in plasma (wild-type mice [1]; day 2): 227 µg/mL
- Phospholipid-bound DHA level in pancreas (wild-type mice [1]; day 2): 67.8 nmoles per total extract
- Phospholipid-bound AA level in RBC (wild-type mice [1]; day 4): 6.2 nmoles/100 million cells
- Phospholipid-bound AA level in pancreas (wild-type mice [1]; day 4): 139 nmoles per total extract
- Phospholipid-bound AA level in plasma (wild-type mice [1]; day 4): 123 µg/mL
- Phospholipid-bound DHA level in pancreas (wild-type mice [1]; day 4): 101.0 nmoles per total extract
- Phospholipid-bound AA level in RBC (wild-type mice [1]; day 7): 3.7 nmoles/100 million cells
- Phospholipid-bound AA level in pancreas (wild-type mice [1]; day 7): 104 nmoles per total extract
- Phospholipid-bound AA level in plasma (wild-type mice [1]; day 7): 84 µg/mL
- Phospholipid-bound DHA level in pancreas (wild-type mice [1]; day 7): 125 nmoles per total extract
- 20:4n-6 in lung (wild-type mice [2]; [4]): 28 nmoles per total extract
- 20:4n-6 in pancreas (wild-type mice [2]; [4]): 82 nmoles per total extract
- 22:4n-6 in lung (wild-type mice [2]; [4]): 2 nmoles per total extract
- 22:4n-6 in pancreas (wild-type mice [2]; [4]): 1.6 nmoles per total extract
- 22:6n-3 in lung (wild-type mice [2]; [4]): 227 nmoles per total extract
- 22:6n-3 in pancreas (wild-type mice [2]; [4]): 200 nmoles per total extract

SMILES: CC/C=C\C/C=C\C/C=C\C/C=C\C/C=C\CCCCCC(=O)O [DPA, docosapentaenoic acid]
- 20:4n-6 in lung (wild-type mice [2]; [5]): 7.8 ± 0.9 (17.5) nmoles of fatty acid per mg of protein
- 20:4n-6 in pancreas (wild-type mice [2]; [5]): 6.8 ± 0.6 (13.3) nmoles of fatty acid per mg of protein
- 20:5n-3 in lung (wild-type mice [2]; [5]): 8.6 ± 0.8 (0.07) nmoles of fatty acid per mg of protein
- 20:5n-3 in pancreas (wild-type mice [2]; [5]): 7.5 ± 0.8 (0.07) nmoles of fatty acid per mg of protein
- 22:6n-3 in lung (wild-type mice [2]; [5]): 7.5 ± 0.8 (4.0) nmoles of fatty acid per mg of protein
- 22:6n-3 in pancreas (wild-type mice [2]; [5]): 2.5 ± 0.4 (1.5) nmoles of fatty acid per mg of protein

SMILES: CC/C=C\C/C=C\C/C=C\CCCCCCCC(=O)O [LNA, α-linolenic acid, reference compound]
- Change in phospholipid/membrane-bound AA (in words) (wild-type mice [2]; wild-type mice): decrease in membrane-bound AA
- Change in phospholipid/membrane-bound DHA (in words) (wild-type mice [2]; wild-type mice): increase in membrane-bound DHA
- Change in phospholipid/membrane-bound AA (in words) (wild-type mice [2]; [6]): decrease in phospholipid-bound AA
- Change in phospholipid/membrane-bound DHA (in words) (wild-type mice [2]; [6]): increase in phospholipid-bound DHA
- Effect on pancreas morphology (in words) (wild-type mice [3]): did not produce and observable effects on pancreas morphology
- Effect on pancreas morphology (in words) (wild-type mice [3]; listed as 18:3n-3): did not produce any observable effects on pancreas morphology
- Effect on ileal/intestinal villus height (in words) (CFTR−/− mice): increased intestinal villi height
